Data: patent US8709454B2, “Combination of a microorganism and a phytosphingosine derivative, composition, methods of use” (L'Oreal, priority 2009, dated 2014)

Key:
Assay type in all cases: cell-based
Conditions in all cases: topical 50 μl, 6 hours after treatment, related to G3PDH messenger
[1] = system: involucrin (INV) gene; assay: RT-qPCR gene expression in Episkin reconstructed epidermis: involucrin
Protocol: (§1) The effects of the following four compositions were tested on the differentiation of Episkin® reconstructed epidermis. • A: formulation support (ethyl alcohol (3%) and water (97%)), • B: lysate (ethyl alcohol (3%), water (87%), lysate (10%)), • C: phytosphingosine salicylate (ethyl alcohol (3%), water (96.998%), phytosphingosine salicylate (0.002%)), and • D: combination in accordance with the invention=(0.002% phytosphingosine salicylate+10% lysate+ethyl alcohol (3%)+water (86.998%)).
(§2) J6 Episkin® reconstructed epidermis were placed in 12-well plates containing 2 ml of a maintenance medium and cultured at 37° C. and 5% CO2 for 24 hours. […]
(§3) These effects were characterized by analysing the expression of the cytokeratin 6B (K6B), cytokeratin 10 (K10) and involucrin (INV) genes using a real-time PCR method (quantitative PCR, qPCR) 6 hours after treatment.
(§4) The expression of the markers selected was evaluated by RT-qPCR on the messenger RNA extracted from the Episkin® reconstructed epidermis of each treatment (the duplicates were pooled before RNA extraction) 6, 24 and 48 hours after treatment. […]
(§5) The incorporation of fluorescence into the amplified DNA is measured continuously during the PCR cycles. This system makes it possible to obtain curves of the fluorescence measurement as a function of the PCR cycles and thus to evaluate a relative expression value for each marker. […]

[2] = system: cytokeratin 6B (K6B) gene; assay: RT-qPCR gene expression in Episkin reconstructed epidermis: cytokeratin 6B
Protocol: as §1, §2, §3, §4, §5

[3] = system: cytokeratin 10 (K10) gene; assay: RT-qPCR gene expression in Episkin reconstructed epidermis: cytokeratin 10
Protocol: as §1, §2, §3, §4, §5

phytosphingosine salicylate [Composition C]
INV expression [1]: 146 % of the untreated control | K6B expression [2]: 158 % of the untreated control | K10 expression [3]: 122 % of the untreated control
